According to US20060263449A1 (Advanced Gene Technology, Corp., priority 2005, published 2006):

Experiments:
[1] = test system: 67 molecular targets including G-protein coupled receptors, ion channel-coupled receptors, transporters, ion channels and enzymes; experiment: In vitro safety evaluation, whole panel; conditions: andrographolide at a concentration of 25 μM in the herbal composition
Experimental: To confirm possible adverse effects, extensive in vitro studies covering a broad range of physical function-related 67 molecular targets including G-protein coupled receptors, ion channel-coupled receptors, transporters, ion channels and enzymes, were conducted. […] Interactions found in the primary assay can be indicative of in vivo side effects or safety.

[2] = test system: phytohemagglutinin (PHA)-stimulated whole blood cell; conditions: cultivated; cited from earlier work

SMILES: C=C1CC[C@@H]2[C@](C)(CO)[C@H](O)CC[C@@]2(C)[C@@H]1C/C=C1/C(=O)OC[C@H]1O [andrographolide]
- side-effect in the in vitro safety evaluation [1]: no significant side-effect
- formation of TNFα and β2MG [2]: increase
